Results published in patent publication US11884905B2, “Fluidic chip for cell culture use, culture vessel, and culture method” (University Public Corporation Osaka, priority 2017, dated 2024).

Tests used:
Type in all cases: cell-based
Settings in all cases: culture solution containing 20 μM doxorubicin, 24 hours, optical microscope
[1] = system: human bronchial epithelial cells; assay: Fluidic chip three-dimensional culture with doxorubicin, bronchial epithelial cells downstream of hepatoma cells (control)
Protocol: (§1) Cardiac toxicity known as efficacy and side effect of doxorubicin widely used as an anticancer drug was assessed using the fluidic chip for cell culture use according to the present invention.
(§2) First, five culture vessels 9a each enclosing human hepatoma-derived cells were manufactured, three culture vessels 9b each enclosing human umbilical vein endothelial cells were manufactured, three culture vessels 9c each enclosing human myocardial cells were manufactured, three culture vessels 9d each enclosing human bronchial epithelial cells were manufactured, and three culture vessels 9e each enclosing human fibroblast cells were manufactured. These culture vessels 9a to 9e were subjected to preparatory culture (cultured in three dimensions) for two days in wells 33 of the multi-well plate 32, respectively. The culture vessels were manufactured in the same manner as in the cell culture experiment (1), except that the kinds of the cells to be cultured were changed. FIG. 15 illustrates the photograph of the multi-well plate 32 after the preparatory culture.
(§3) Thereafter, the culture vessels 9a to 9e were set on an optical microscope, and the cultured cells were observed. […] Then, sample cells in good condition in shape were only extracted. […]

human fibroblast cells = assay: Fluidic chip three-dimensional culture with doxorubicin, fibroblast cells downstream of hepatoma cells (control)
Protocol: as §1, §2, §3

[2] = system: human hepatoma-derived cells; assay: Fluidic chip three-dimensional culture with doxorubicin, hepatoma cells (upstream)
Protocol: as §1, §2, §3

human myocardial cells = assay: Fluidic chip three-dimensional culture with doxorubicin, cardiac toxicity on myocardial cells downstream of hepatoma cells
Protocol: as §1, §2, §3

`COc1cccc2c1C(=O)c1c(O)c3c(c(O)c1C2=O)C[C@@](O)(C(=O)CO)C[C@@H]3O[C@H]1C[C@H](N)[C@H](O)[C@H](C)O1` [doxorubicin] was tested, and the “change in shape / growth of bronchial epithelial cells” value [1] was “a branch of a bronchus was wide and continued to grow”, the “change in shape / growth of fibroblast cells” value (human fibroblast cells) was “the fibroblast cells continued to grow” and the “change in shape of hepatoma cells (infiltrating portions), efficacy as anticancer drug” value [2] was “the infiltrating portions disappear within twenty-four hours”. The “change in shape of myocardial cells (cardiac toxicity)” value (human myocardial cells) was “entirely reduced in size”.
